Measured values published in PubChem BioAssay (NCI).
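Where inhibition never reached the appropriate level, the endpoint shown equals the highest concentration tested. Otherwise, values were interpolated linearly from a five-concentration, 48-hour dose response in 96-well plates. TGI denotes the concentration required for complete inhibition of growth.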

Key:
Assay in all cases: DTP human tumour cell line panel, 48 h
[1] = test system: HT29 colon
[2] = test system: M14 melanoma
[3] = test system: HCT-15 colon
[4] = test system: MCF7 breast
[5] = test system: MDA-MB-231 breast
[6] = test system: OVCAR-5 ovarian
[7] = test system: UACC-62 melanoma
[8] = test system: SF-268 CNS
[9] = test system: U251 CNS
[10] = test system: BT-549 breast
[11] = test system: SF-539 CNS
[12] = test system: SK-MEL-2 melanoma
[13] = test system: OVCAR-8 ovarian
[14] = test system: HL-60(TB) leukemia
[15] = test system: PC-3 prostate
[16] = test system: K-562 leukemia
[17] = test system: TK-10 renal
[18] = test system: COLO 205 colon
[19] = test system: NCI-H460 lung
[20] = test system: RXF 393 renal

Measured: TGI

Cc1cc(C2(O)C=C(C(C)(C)C)C(=O)C(C(C)(C)C)=C2)c(C)cc1C1(O)C=C(C(C)(C)C)C(=O)C(C(C)(C)C)=C1
> 100 µM: [1] | [2] | [3] | [4] | [5] | [6] | [7] | [8] | [9] | [10] | [11] | [12] | [13] | [14] | [15] | [16] | [17] | [18]

COc1cc(C2SCC(=O)N2c2ccc(-c3ccc(-n4c(-c5ccccc5)nc5ccccc5c4=O)cc3)cc2)cc(OC)c1OC (stereo unspecified)
> 100 µM: [1] | [2] | [3] | [4] | [19] | [5] | [6] | [7] | [8] | [9] | [11] | [13] | [14] | [16] | [17] | [18]
55.4 µM: [10]
41.5 µM: [15]
56.5 µM: [12]

CN(C)Cc1cc(C(=O)/C=C/c2ccccc2Cl)cc(CN(C)C)c1O
18.5 µM: [19] | [18]
29.2 µM: [15]
26.1 µM: [4]
27.2 µM: [14]
9.94 µM: [1]
24.3 µM: [16]
24.6 µM: [5]
34 µM: [11]
34.9 µM: [17]
20 µM: [10]
61.3 µM: [8]
41.7 µM: [20]
23.3 µM: [2]
40.2 µM: [6]
27 µM: [9]
36 µM: [3]
31.9 µM: [13]

NCCSc1nc2ccccc2c(=O)n1-c1ccccc1
> 100 µM: [1] | [2] | [3] | [4] | [5] | [6] | [7] | [9] | [10] | [11] | [12] | [13] | [15] | [16] | [17] | [18]
90.7 µM: [14]

Cc1cn(C(Cc2ccccc2)OCCO)c(=O)[nH]c1=O (stereo unspecified)
> 100 µM: [1] | [2] | [3] | [4] | [19] | [5] | [20] | [6] | [7] | [9] | [10] | [11] | [12] | [13] | [15] | [16] | [18]

CCOP(=O)(OCC)c1c(C(=O)OC)cc(=O)[nH]c1-c1ccc(C)cc1
> 47.1 µM: [13]
43.4 µM: [19]
20.5 µM: [6]
29.3 µM: [9]
76.3 µM: [5]
27.9 µM: [17]
34.2 µM: [15]
> 78.4 µM: [16]
> 52.1 µM: [8]
23 µM: [11]
15.2 µM: [18]
27.3 µM: [20]
> 49.7 µM: [4]
27.2 µM: [3]
42.1 µM: [1]
20.3 µM: [10]
20.4 µM: [7]
27.8 µM: [2]
32.4 µM: [12]

O=C(O)CC[N+]1=CCC(c2ccccc2)(c2ccccc2)O1
> 100 µM: [1] | [2] | [3] | [4] | [19] | [5] | [20] | [6] | [7] | [8] | [9] | [10] | [11] | [12] | [13] | [15] | [16] | [17] | [18]

Cc1ccn2c(=O)cc(-c3ccccc3)nc2c1
> 100 µM: [1] | [2] | [3] | [4] | [19] | [5] | [20] | [6] | [7] | [8] | [9] | [10] | [11] | [13] | [14] | [15] | [16] | [17] | [18]

CC1CCOc2ccc(cc2)C=Nc2ccc(cc2)CCc2ccc(cc2)N=Cc2ccc(cc2)OCC1 (stereo unspecified)
> 100 µM: [1] | [2] | [3] | [4] | [19] | [5] | [20] | [6] | [7] | [8] | [9] | [10] | [11] | [12] | [13] | [15] | [16] | [18]

CC(=O)N1N=C(c2ccc3ccccc3c2O)CC1C(=O)c1ccco1 (stereo unspecified)
83.8 µM: [11]
57.7 µM: [2]
52.8 µM: [12]
41 µM: [16]
> 100 µM: [1] | [3] | [4] | [19] | [5] | [20] | [6] | [8] | [9] | [10] | [13] | [15] | [17]
67.6 µM: [18]
62.6 µM: [7]

CCOC(=O)c1ccc(N2C(=S)N(C(=O)c3ccccc3)C(=Nc3ccccc3)C2=Nc2ccccc2)cc1
> 100 µM: [1] | [2] | [3] | [4] | [19] | [6] | [7] | [8] | [9] | [10] | [11] | [12] | [13] | [15] | [16] | [17]

N#Cc1c(-c2ccccc2)nc(-c2ccccc2)sc1=S
> 100 µM: [1] | [2] | [3] | [4] | [19] | [5] | [20] | [6] | [7] | [8] | [9] | [10] | [11] | [12] | [13] | [14] | [16] | [17] | [18]

CNC(=O)Oc1ccc(-c2cn3cc(OC(=O)NC)ccc3n2)cc1
75 µM: [8]
> 100 µM: [1] | [2] | [3] | [4] | [19] | [5] | [20] | [6] | [7] | [9] | [10] | [11] | [12] | [13] | [15] | [16] | [17] | [18]

COC(=O)[C@H](Cc1ccccc1)NC(=O)[C@H](Cc1ccccc1)NC(=O)[C@@H]1CCCN1C(=O)N[C@H]1C2C=CC(C2)C1C(=O)N1CCC[C@H]1C(=O)N[C@@H](C)C(=O)N[C@H](C(=O)OC)C(C)C (stereo partly specified)
> 100 µM: [1] | [2] | [3] | [4] | [19] | [5] | [20] | [6] | [7] | [8] | [9] | [10] | [13] | [14] | [15] | [16] | [17] | [18]

Cc1cc(C)cc(Nc2cc(=O)[nH]c(=O)[nH]2)c1
> 100 µM: [1] | [2] | [3] | [4] | [19] | [5] | [20] | [6] | [8] | [9] | [10] | [11] | [13] | [14] | [15] | [16] | [17] | [18]

CC1(CF)SCc2nc3ccccc3n21 (stereo unspecified)
> 100 µM: [1] | [2] | [3] | [4] | [19] | [5] | [20] | [6] | [7] | [8] | [9] | [10] | [11] | [13] | [14] | [15] | [17] | [18]

Nn1c(CCCCCCCCc2nnc(COc3ccc(Cl)cc3)n2N)nnc1COc1ccc(Cl)cc1
> 100 µM: [1] | [2] | [3] | [4] | [19] | [5] | [20] | [6] | [7] | [8] | [9] | [10] | [12] | [15] | [16] | [17] | [18]

NC(=O)NNC(=O)c1nc[nH]c1[N+](=O)[O-]
> 100 µM: [1] | [2] | [3] | [4] | [19] | [5] | [20] | [6] | [7] | [8] | [9] | [10] | [11] | [12] | [13] | [15] | [16] | [17] | [18]

CCCSc1ccc2[nH]c(/N=C/c3ccco3)cc2c1
> 100 µM: [1] | [2] | [3] | [4] | [20] | [6] | [7] | [8] | [10] | [13] | [15]
42.5 µM: [11]
84.4 µM: [14]
49.7 µM: [18]
59 µM: [12]

CC1=NN(c2ccc(S(=O)(=O)O)cc2)C2(C1)SCC(=O)N2c1nc2ccccc2s1 (stereo unspecified)
> 100 µM: [1] | [2] | [3] | [4] | [19] | [5] | [20] | [6] | [7] | [8] | [9] | [10] | [11] | [12] | [13] | [15] | [16] | [17] | [18]
